Assay results reported in ChEMBL document CHEMBL1143030, “Synthesis and evaluation of 2-(2,6-dihalophenyl)-3-pyrimidinyl-1,3-thiazolidin-4-one analogues as anti-HIV-1 agents” (Bioorg Med Chem, 2007).
The source made the active and inactive calls. The rule behind the calls is not given here.

Key:
[1] = Selectivity index, ratio of CC50 for mock-infected MT4 cells to EC50 for HIV1 3B; type: functional
[2] = system: Human immunodeficiency virus 1; assay: Antiviral activity against HIV1 3B-induced cytopathic effect in CEM cells assessed as inhibition of virus-induced syncytium formation; type: functional, organism-based; conditions: Human immunodeficiency virus 1, 3B, CCRF-CEM
[3] = system: Human immunodeficiency virus 1; assay: Antiviral activity against HIV1 3B-induced cytopathic effect in MT4 cells assessed as inhibition of virus-induced syncytium formation; type: functional, organism-based; conditions: Human immunodeficiency virus 1, 3B
[4] = Selectivity index, ratio of CC50 for mock-infected CEM cells to EC50 for HIV1 3B; type: functional, CCRF-CEM
[5] = system: Human immunodeficiency virus 2; assay: Inhibition of HIV2 ROD replication in MT4 cells; type: functional, organism-based
[6] = biological target: Human immunodeficiency virus type 1 reverse transcriptase (Human immunodeficiency virus 1) (UniProt Q72547); assay: Inhibition of HIV1 reverse transcriptase at 100 ug/ml
[7] = Cytotoxicity against mock-infected MT4 cells assessed as reduction of cell viability; type: cell-based; conditions: human
[8] = biological target: Human immunodeficiency virus type 1 reverse transcriptase (Human immunodeficiency virus 1) (UniProt Q72547); assay: Inhibition of HIV1 reverse transcriptase at 10 ug/ml
[9] = Cytotoxicity against mock-infected CEM cells assessed as reduction of cell viability; type: cell-based; conditions: human, mock-infected CEM (CCRF-CEM) cells

| Compound | Ratio CC50/EC50 [1] | EC50 [2] | EC50 ([3]; read-out: EC50) | EC50 ([3]; read-out: Log EC50 (converted)) | Ratio CC50/EC50 [4] | Activity [5] | inhibition [6] | CC50 [7] | inhibition [8] | CC50 [9] |
| --- | --- | --- | --- | --- | --- | --- | --- | --- | --- | --- |
| Cc1cc(N2C(=O)CSC2c2c(F)cccc2Cl)nc(C)n1 (configuration not stated) | 11 | 4.1 µM | 4.3 µM | 3.98 µM | 12 | inactive | 48.6% | 47.6 µM | 9.3% | 47.6 µM |
| O=C1CSC(c2c(Cl)cccc2Cl)N1c1nc(-c2ccccc2)cc(C(F)(F)F)n1 (configuration not stated) | <1 |  | > 80.2 µM |  |  | inactive | 39.4% | 140 µM | 25.4% |  |
| Cc1cc(C(F)(F)F)nc(N2C(=O)CSC2c2c(F)cccc2Cl)n1 (configuration not stated) | 13 | 1.1 µM | 1.3 µM | 1.26 µM | 18 | inactive | 93.7% | 16.9 µM | 46.3% | 19.3 µM |
| Cc1cc(N2C(=O)CSC2c2c(F)cccc2F)nc(C)n1 (configuration not stated) | 11 | 20.3 µM | 25.5 µM | 25.1 µM | 13 | inactive | 58.1% | 272 µM | 27.2% | 272 µM |
| Cc1cc(N2C(=O)CSC2c2c(Cl)cccc2Cl)nc(C)n1 (configuration not stated) | 10 | 3.8 µM | 4.3 µM | 3.98 µM | 11 | inactive | 51.9% | 41.3 µM | 6.6% | 42 µM |
| Cc1nc(N2C(=O)CSC2c2c(Cl)cccc2Cl)nc(C)c1C (configuration not stated) |  |  |  |  |  |  | 100% |  | 94.8% |  |
| Fc1cccc(F)c1C1SCc2nc3ccccc3n21 (configuration not stated) [THIAZOLOBENZIMIDAZOLE] | 54.5 | 1.1 µM | 0.35 µM |  | 45 |  |  |  |  |  |
| Cc1nc(N2C(=O)CSC2c2c(F)cccc2F)nc(C)c1C (configuration not stated) | 880 | 0.3 µM | 0.4 µM | 0.398 µM | >1222 | inactive | 100% | 341 µM | 96.3% | > 373 µM |
| O=C1CSC(c2c(Cl)cccc2Cl)N1c1nc(-c2ccccc2)cc(-c2ccccc2)n1 (configuration not stated) | <1 |  | > 195 µM |  |  | inactive | 51.4% | 193 µM | 31.6% |  |
| Clc1cccc(Cl)c1C1SCc2nc3ccccc3n21 (configuration not stated) | 16 |  | 0.6 µM |  |  |  |  | 9.4 µM |  |  |
| Cc1cc(-c2ccccc2)nc(N2C(=O)CSC2c2c(F)cccc2F)n1 (configuration not stated) | 6 | 5.6 µM | 6.4 µM | 6.31 µM | 6 | inactive | 54.2% | 36.5 µM | 47.4% | 36.5 µM |
| O=C1CSC(c2c(F)cccc2Cl)N1c1nc(-c2ccccc2)cc(-c2ccccc2)n1 (configuration not stated) | <1 |  | > 242 µM |  |  | inactive | 66.7% | > 201 µM | 55.6% |  |
| Cc1cc(C(F)(F)F)nc(N2C(=O)CSC2c2c(F)cccc2F)n1 (configuration not stated) | 25 | 4.4 µM | 5 µM | 5.01 µM | 32 | inactive | 38.9% | 125 µM | 32.3% | 140 µM |
| Cc1cc(-c2ccccc2)nc(N2C(=O)CSC2c2c(F)cccc2Cl)n1 (configuration not stated) | 38 | 3.9 µM | 3.9 µM | 3.98 µM | 44 | inactive | 79.9% | 146 µM | 32.7% | 172 µM |
| Cc1cc(-c2ccccc2)nc(N2C(=O)CSC2c2c(Cl)cccc2Cl)n1 (configuration not stated) | 6 | 5.8 µM | 6.1 µM | 6.31 µM | 6 | inactive | 51.5% | 35.3 µM | 18% | 35.3 µM |
| Cc1cc(C(F)(F)F)nc(N2C(=O)CSC2c2c(Cl)cccc2Cl)n1 (configuration not stated) | 46 | 0.8 µM | 1 µM | 1 µM | 62 | inactive | 43.7% | 46.4 µM | 32.9% | 46.7 µM |
| O=C1CSC(c2c(F)cccc2F)N1c1nc(-c2ccccc2)cc(-c2ccccc2)n1 (configuration not stated) | <1 |  | > 167 µM |  |  | inactive | 44% | 177 µM | 30.1% |  |
| Cc1nc(N2C(=O)CSC2c2c(F)cccc2Cl)nc(C)c1C (configuration not stated) |  |  |  |  |  |  | 100% |  | 99.3% |  |
| O=C1CSC(c2c(F)cccc2F)N1c1nc(-c2ccccc2)cc(C(F)(F)F)n1 (configuration not stated) | <1 |  | > 123 µM |  |  | inactive | 6.6% | 74.3 µM | 15.6% |  |
| O=C1CSC(c2c(F)cccc2Cl)N1c1nc(-c2ccccc2)cc(C(F)(F)F)n1 (configuration not stated) | 9 |  | > 10.8 µM |  |  | inactive | 20.6% | 93.9 µM | 43.9% |  |
